According to US8110544B2, “RasGAP derived peptide for selectively killing cancer cells” (Universite de Lausanne, priority 2003, dated 2012):

What was measured:
Format in all cases: cell-based, human
U2OS cells = experiment: Apoptosis of transfected (GFP-positive) U2OS cells with or without IκBαΔN2; conditions: 20 μM peptide, IkBαΔN2 expressed, 20 hours
Experimental: (§1) U2OS cells were transfected with 1 μg of a firefly luciferase reporter plasmid for NFκB activity, 0.1 μg of a plasmid encoding the Renilla luciferase, 0.5 μg of a GFP-expressing plasmid (to label the transfected cells), 1 μg of a plasmid encoding IκBαΔN2 that inhibit the NFκB pathway or with 1 μg an empty pcDNA3 vector. The cells were incubated one day later with increasing concentrations of cisplatin in the presence of 20 μM HIV-TAT48-57 or 20 μM TAT-RasGAP317-326 for an additional 20 hour period. The cells were then lysed and the NFκB activity assessed as described in panel A, except that the results were expressed as fold increase of the NFκB activity detected in cells incubated with the control HV-TAT48-57 peptide.
Alternatively, the number of GFP-positive cells displaying pycnotic nucleus was determined. The results correspond to the mean±standard deviation of three independent determinations.
Apoptosis was determined by scoring the number of cells displaying pycnotic nuclei. Nuclei of live cells were labeled with Hoechst 33342 (10 μg/ml final concentration) for about 5 minutes and the cells were then analyzed (at least 400 cells per condition) using an inverted Leica DMIRB microscope equipped with fluorescence and transmitted light optics. […] In this case, the extent of apoptosis was assessed in the transfected cells only.

NFκB activity = experiment: NFκB firefly luciferase reporter assay in U2OS cells; conditions: 20 hours
Experimental: U2OS Cells (1×10^5) were plated in 6 well plates and transfected with 1 μg of a firefly luciferase reporter plasmid for NFκB activity and 0.1 μg of a plasmid encoding the Renilla luciferase. The cells were treated one day later with the indicated concentrations of cisplatin in the absence or in the presence of 20 μM HV-TAT48-57 or TAT-RaSGAP317-326 peptides during 20 hours. The data represent the firefly luciferase activity normalized to the Renilla luciferase activity and expressed as fold increase of the basal NFκB activity obtained in control untreated cells. The results correspond to the mean±standard deviation of three independent determinations. Asterisks denote significant differences between the indicated conditions (**, p<0.01; ***, p<0.001).
as §1
Luciferase assay was performed using the Dual-Luciferase® Reporter Assay from Promega (cat. no E1910). […] The firefly luciferase activity was recorded by mixing 20 μl of the lysate with 25 μl of the LARII Reagent and the Renilla luciferase activity was recorded by adding to the previous mix 25 μl of the Stop & Glo Reagent. For each measurement, light emission was quantified during 12 seconds using a Lumat LB 9501 luminometer (Berthold Technologies, Zurich, Switzerland).

[1] = system: cancer cell lines (HeLa, U2OS, MCF-7, and H-Meso1); experiment: Genotoxin-induced apoptosis (pycnotic nuclei) in cancer cell lines with or without peptides; conditions: 20 μM peptide
Experimental: Four cancer cell lines (HeLa, U2OS, MCF-7, and H-Meso1) were plated in 6-wells plates and treated with the indicated concentrations of cisplatin, adriamycin and mitoxantrone in the absence or in the presence of either 20 μM MV-TAT48-57 Or TAT-RaSGAP317-326 peptides for 20 hours. The number of cells displaying pycnotic nucleus was then scored. The results correspond to the mean±standard deviation of three independent determinations. Asterisks denote significant differences between the genotoxin-treated cells incubated with TAT-RaSGAP317-326 and those left untreated or incubated with the HIV-TAT48-57 peptide (**, p<0.01; ***, p<0.001).
Apoptosis was determined by scoring the number of cells displaying pycnotic nuclei. Nuclei of live cells were labeled with Hoechst 33342 (10 μg/ml final concentration) for about 5 minutes and the cells were then analyzed (at least 400 cells per condition) using an inverted Leica DMIRB microscope equipped with fluorescence and transmitted light optics. Assessment of apoptosis was performed one day after the transfection or treatment of the cells. In experiment involving transfected cells, pEGFP-C1 was included in the transfection solution to label the transfected cells with GFP. In this case, the extent of apoptosis was assessed in the transfected cells only. […]

[2] = system: HeLa, U2OS, H-Meso1, MCF-7, HaCat and HUV-EC-C cell lines; experiment: Cellular uptake of FITC-labelled peptide (epifluorescence of live cells); conditions: FITC-labelled peptide 20 μM
Experimental: The following cell lines (HeLa, U2OS, H-Meso1, MCF-7, HaCat and HUV-EC-C) were incubated 3 hours at 37° C., 5% CO2 in culture medium with 20 μM FITC-labelled TAT-RasGAP317-326 peptide and then washed three times with culture medium.
Fluorescein isothiocyanate (FITC)-labeling was performed on the sequence β-alanine-[…] (SEQ ID NO: 16) whose side chain Fmoc-protected amino acids were Arg(bpf), Lys(Boc), Gln(Trt), Trp(Boc), Thr(tBu), Asn(Trt), and Asp(OtBu). The peptide was synthesized stepwise on 0.2 mmol Rink Amide AM resin using Fmoc chemistry. The synthesis was monitored by ninhydrin test. After the coupling of β-alanine, the Fmoc group was removed with 20% piperidine in dimethylformamide (DMF). At this stage, a fluorescein group was conjugated to the N-terminus of peptide with FITC (5 fold excess over the substitution of the resin in 4 ml DMF and 1 ml N-ethyldiisopropylamine) to form the fluorescein-derivated peptide.
If a plasmid encoding amino acid 317-326 of RasGAP has the ability to enhance the ability of a drug to kill cancer cells, a synthetic peptide corresponding to the […] should also display this activity provided that it can penetrate cells. […] We first assessed the sensitivity of the cancer cell lines towards increasing concentrations of the three genotoxins (data not shown). […]

p38 MAPKs = experiment: Western blot of phospho-p38 in U2OS cells; conditions: 20 μM peptide
Experimental: (§2) U2OS cells (2×10^5) were plated in 6 well plates and treated for the indicated periods of time with the indicated combinations of the HW-TAT48-57 or TAT-RasGAP317-326 peptides (at a 20 μM concentration) and cisplatin (at a 30 μM concentration). Positive controls for JNK and p38 activation were obtained following stimulation of the cells with 1 μg/ml anisomycine during 3 hours and with 0.5 M sorbitol for 30 min, respectively. The quantitations depicted under the Western blots were performed on the 12-hour bands and normalized against the positive controls. The results correspond to the mean±standard deviation of three independent experiments. […]

JNK = experiment: Western blot of phospho-JNK in U2OS cells; conditions: 20 μM peptide
Experimental: as §2

GRKKRRQRRRGGWMWVTNLRTD [TAT-RasGAP317-326]
potency to enhance cisplatin killing of U2OS cells in presence of NFkB inhibitor (U2OS cells): unaffected by the NFkB inhibitor
NFkB activation in U2OS cells (single agent) (NFκB activity; 20 μM peptide or cisplatin): activated
NFkB activation with both cisplatin and peptide (NFκB activity; U2OS cells, cisplatin plus 20 μM peptide): additive activation of NFkB
enhancement of the ability of cisplatin, adriamycin and mitoxantrone to kill cancer cell lines ([1]; 20 hours, sub-lethal genotoxin concentrations): enhanced the ability of cisplatin, adriamycin, and mitoxantrone to kill the tested cancer cell lines
apoptosis induced in control conditions (no genotoxin) ([1]; cancer cell lines): did not, or only marginally, induce apoptosis in control conditions
difference in translocation between non cancer cells and cancer cells ([2]; 3 hours): No difference in translocation
cellular uptake of the peptide ([2]; 3 hours at 37° C., four tumor and two non cancer cell lines): efficiently entered all these cell lines
activation of p38 MAPK pathway by peptide alone (p38 MAPKs): neither the control HIV-TAT48-57 peptide nor the TAT-RasGAP317-326 peptide activated these MAPK pathways
activation of JNK pathway by peptide alone (JNK): neither the control HIV-TAT48-57 peptide nor the TAT-RasGAP317-326 peptide activated these MAPK pathways
